Measurements published in publication PMC6044451 (Journal of medicinal chemistry, 2018).

System: HIV-1LAI
Assay: Antiviral activity in MT-2 human T-lymphoid cells exposed to HIV-1LAI
Format: cell-based

IC50 (Human immunodeficiency virus 1, MT2, in Homo sapiens, read-out: antiviral IC50) [nM] | SMILES | improvement in antiviral activity compared to inhibitor 4b (MT-2 cells exposed to HIV-1LAI, versus 4b) [fold]
– | COc1ccc(S(=O)(=O)N(CC(C)C)C[C@@H](O)[C@H](Cc2ccccc2)NC(=O)O[C@H]2C[C@H]3CO[C@H]4OCC[C@@H]2[C@@H]34)cc1 [Inhibitor 4c, (2aR,2a^1R,4S,4aR,7aR)-Octahydro-2H-1,7-dioxacyclopenta[cd]inden-4-yl ((2S,3R)-3-hydroxy-4-((N-isobutyl-4-methoxyphenyl)sulfonamido)-1-phenylbutan-2-yl)carbamate] | 4
21 | CC(C)(C)NC(=O)[C@@H]1C[C@@H]2CCCC[C@@H]2CN1C[C@@H](O)[C@H](Cc1ccccc1)NC(=O)[C@H](CC(N)=O)NC(=O)c1ccc2ccccc2n1 [SQV, saquinavir] | –
